Measurements from the supplement of paper PMC10949913.

Assays:
Conditions in all cases: 48 h
CU-ACC2 [1] = assay: area under concentration-response curve (viability) (AUC (a.u.)); higher = less active
Outline: (§1)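 Three adrenocortical carcinoma cell lines were seeded at 500–1,000 cells/well in 5 µL medium in 1,536-well plates. 23 nL of each MIPE 5.0 library compound was added at 11 concentrations. After 48 h (per the protocol name), CellTiter-Glo was added for 15 minutes at room temperature and luminescence was read. Signals were normalised per plate to vehicle and empty-well controls. AC50 and area under the curve came from fitted concentration-response curves, keeping only inhibitory or non-responding curve classes.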

CU-ACC1 = assay: as above
Outline: as §1

NCI-H295R [2] = assay: as above
Outline: as §1

CU-ACC2 [3] = assay: AC50 viability; higher = less potent
Outline: as §1

NCI-H295R [4] = assay: AC50 viability; higher = less potent
Outline: as §1

SMILES | area under concentration-response curve (CU-ACC2 [1]) | area under concentration-response curve (CU-ACC1) | area under concentration-response curve (NCI-H295R [2]) | AC50 viability (CU-ACC2 [3]) | AC50 viability (NCI-H295R [4])
c1ccc2c(-c3cnn4cc(-c5ccc(N6CCNCC6)cc5)cnc34)ccnc2c1 | 498 | 434 | 439 | 2.95 µM | 2.09 µM
CCCCC(C)(C)[C@H](O)/C=C/[C@H]1[C@H](O)CC(=O)[C@@H]1C/C=C\CCCC(=O)O | 307 | 325 | 211 | 0.105 µM | 0.00372 µM
C[C@@H](OC[C@@]1(c2ccccc2)CC[C@]2(CCC(=O)N2)CN1)c1cc(C(F)(F)F)cc(C(F)(F)F)c1 | 566 | 550 | 497 | 20.9 µM | 16.6 µM
CC(C)C(N)C(=O)OCC(CO)OC[N]1C=NC2=C1N\C(=N/C2=O)N (configuration not stated) | 436 | 426 | 436 | 5.25 µM | 0.661 µM
c1ccc(-c2cc(CCC3CCNCC3)c3ccccc3n2)cc1 | 561 | – | 469 | 23.5 µM | 20.9 µM
NC(=O)Nc1sc(-c2ccc(F)cc2)cc1C(N)=O | 559 | 511 | 485 | 8.33 µM | 5.9 µM
C[C@@H]1CC[C@@]2(CC[C@]3(C)\C(=C/C[C@@H]4[C@@]5(C)C[C@@H](O)[C@H](O)[C@@](C)(CO)[C@@H]5CC[C@@]34C)[C@@H]2[C@H]1C)C(O)=O | 410 | 371 | 354 | 1.18 µM | 2.35 µM
O=c1[nH]c2ccccc2n1C1CCN(Cc2ccc(-c3nc4cc5nc[nH]c5cc4nc3-c3ccccc3)cc2)CC1 | 604 | 558 | 492 | 20.9 µM | 20.9 µM
Cc1ccc(C(=O)OCc2ccc([C@@H](CN)C(=O)Nc3ccc4cnccc4c3)cc2)c(C)c1 | 591 | 507 | 534 | 9.11 µM | 12.9 µM
CN[C@H]1CCC2=CC(=C(OC)C(=C2C/3=C/C=C(OC)\C(=O)/C=C13)OC)OC | 463 | 478 | 417 | 0.468 µM | 0.0934 µM
CCc1nc(C(N)=O)c(Nc2ccc(N3CCC(N4CCN(C)CC4)CC3)c(OC)c2)nc1NC1CCOCC1 | 477 | 533 | 500 | 13.2 µM | 4.17 µM
C=C1C(=O)[C@@]23C(CC[C@@H]1[C@H]2O)[C@@]12CO[C@]3(O)[C@@H](O)[C@@H]1C(C)(C)CC[C@@H]2O (some centres not stated) | 551 | 486 | 529 | 11.8 µM | 18.6 µM
FC(F)(F)c1ccc(Nc2nc(-c3c(C(F)(F)F)nc4ccccn34)cs2)cc1 | 529 | – | 413 | 20.9 µM | 5.25 µM
CNC(=O)c1nn(C)c2c1C(C)(C)Cc1cnc(Nc3ccc(N4CCN(C)CC4)cc3)nc1-2 | 483 | – | 473 | 7.42 µM | 18.6 µM
O=C(Nc1cc(Oc2cc(F)c(NC(=O)C3(C(=O)Nc4ccc(F)cc4)CC3)cc2F)ccn1)C1CC1 | 504 | 445 | 482 | 8.33 µM | 10.5 µM
Cc1cc(Nc2ncc(Cl)c(Nc3ccccc3[S+](=O)([O-])C(C)C)n2)c(OC(C)C)cc1C1CCNCC1 | 495 | 439 | 419 | 16.6 µM | 5.9 µM
Oc1cccc(-c2nc(N3CCOCC3)c3oc4ncccc4c3n2)c1 | 427 | 401 | 404 | 0.332 µM | 2.09 µM
CC[P](CC)(CC)=[Au][S][C@@H]1O[C@H](COC(C)=O)[C@@H](OC(C)=O)[C@H](OC(C)=O)[C@H]1OC(C)=O | 445 | 439 | 400 | 1.86 µM | 2.09 µM
CN1CCN(Cc2ccc(Nc3ncc(Cl)/c(=N\c4ccccc4[S+](=O)([O-])N(C)C)[nH]3)cc2)CC1 | 378 | 437 | 364 | 0.108 µM | 0.241 µM
CN1CCN(c2ccc(C(=O)Nc3n[nH]c4ccc(Cc5cc(F)cc(F)c5)cc34)c(NC3CCOCC3)c2)CC1 | 470 | 470 | 434 | 5.25 µM | 5.9 µM
Cc1ccc(-n2nc(C(C)(C)C)cc2N/C(O)=N/Cc2cc(F)ccc2Oc2ccc3c(cnn3CCO)c2)cc1 | 549 | 518 | 522 | 20.9 µM | 33.2 µM
O=C(Nc1cccc(Nc2ncc(Br)c(NCCc3cnc[nH]3)n2)c1)N1CCCC1 | 418 | – | 397 | 16.6 µM | 23.5 µM
CN(C)c1ccc2cc(C(=O)N[C@@H](CCCNC(=N)CCl)C(=O)NCc3ccccc3)ccc2c1 | 276 | – | 247 | 0.118 µM | 11.8 µM
Nc1nc(Nc2ccc3c(c2)CC[C@@H](N2CCCC2)CC3)nn1-c1cc2c(nn1)-c1ccccc1CCC2 | 534 | – | 441 | 23.5 µM | 23.5 µM
Cc1cc(C(=O)Nc2cc(Nc3ccc4c(/C=C/c5ccccn5)[nH]nc4c3)ccc2F)n(C)n1 | 572 | – | 525 | 23.5 µM | 23.5 µM
CC[C@]12\C=C/CN3CC[C@]4([C@@H](N(C)C5=C4C=C(C(=C5)OC)[C@]6(CC7C[C@H](CN(C7)CC8=C6[NH]C9=C8C=CC=C9)C(C)(F)F)C(=O)OC)[C@](O)([C@@H]1OC(C)=O)C(=O)OC)[C@H]23 (some centres not stated) | 533 | 468 | 394 | 5.9 µM | 1.48 µM
CC1(COc2ccc3c(c2)ncn3-c2ccc3cccc(N4CCC(N)CC4)c3n2)COC1 | 556 | 545 | 439 | 13.2 µM | 16.6 µM
CCC[C@H](Nc1nc(-c2ccc(NC(=O)NCC)c(OC)c2)ncc1C)c1cccnc1 | 338 | – | 333 | 0.372 µM | 1.32 µM
